Experimental data: patent US10441568B2, “Nitroxide radicals for the treatment of diseases of the respiratory tract” (priority 2015, dated 2019)

How the values were obtained:
[1] = test system: ovalbumin-induced murine model of asthma; assay: Lung resistance / airway hyper-responsiveness to methacholine in OVA asthma model; format: in vivo, BALB/c mice; conditions: oral
Procedure: (§1) All experimental procedures were carried out in accordance with the NIH Guidelines for the Care and Use of Laboratory Animals. Specific pathogen-free (SPF) male BALB/c mice (6-7 weeks of age, 18-22 grams), routinely screened serologically for relevant respiratory pathogens, were maintained in an animal housing facility for 1 week before use and given access to food and water ad libitum. Animals were randomly assigned to the indicated experimental groups, and sensitized with two intraperitoneal (IP) injections (20 μg ovalbumin (OVA) emulsified in 2 mg aluminum hydroxide (an adjuvant) in 200 μl phosphate buffer saline (PBS), pH 7.4), on days 1 and 10.
(§2) After another week, the animals were challenged by exposure to ovalbumin (OVA) aerosol (1%, w/v, in PBS) for 30 minutes each day on days 17, 18 and 19, in order to elicit an inflammatory reaction in the lungs characterized by airway hyper-responsiveness (AHR), an influx of inflammatory cells (particularly eosinophils), and increased pulmonary levels of various cytokines and transforming growth factors, protein nitration and lipid peroxidation.
(§3) The features of allergic inflammation typically reached their peak a day or two after the final exposure. Mice were then subjected to one of the following treatments: (i) sham-sensitization plus challenge with PBS; (ii) positive control-sensitization plus challenge with OVA; (iii) sensitization plus challenge with OVA and various indicated treatments (e.g., with nitroxide or dexamethasone), including different modes (oral, IP, intranasal, inhalation), time windows (sensitization stage, challenge stage, both stages and after the last challenge), and doses of nitroxide administration.
One day after the final challenge, respiratory activity and airway hyper-responsiveness (AHR) of experimental animals were evaluated. Whole body plethysmographs for enhanced pause (Penh) measurements are often used for assessment of AHR. However, critics have questioned the validity of Penh measurements, which supposedly measure airway obstruction of live non-sedated mice, stating that it is likely to measure the distress of the animal rather than actual obstruction. […] In brief, mice were sedated with an intraperitoneal (IP) injection of xylazine hydrochloride and anaesthetized with IP injection of pentobarbital. Subsequently, the animals were tracheostomized using an 18 gauge cannula, ventilated with a FlexiVent™ apparatus (SCIREQ), and muscle paralysis was induced with pancuronium bromide. The mice were ventilated in a quasi-sinusoidal fashion with the following settings: a tidal volume of 10 ml/kg, maximum inflation pressure of […] (30 cm H2O), a positive end expiratory pressure (PEEP) of 3 millibar and a frequency of 150 per minute. Following an equilibration period of 3 minutes of tidal ventilation, two lung inflations to a transrespiratory pressure of 2.5 millibar were performed and baseline measurements were taken. Airway hyper-responsiveness (AHR) was determined by aerosolizing increasing concentrations of methacholine. After baseline determination of airway resistance, mice were challenged with 0 to 64 mg/mL methacholine nebulized directly into the ventilatory circuit using an AeroNeb™ Lab nebulizer system (SCIREQ). Two models of respiratory mechanics were used to assess lung resistance: a linear 1st-order single compartment model and a constant-phase model. All data points were collected with FlexiVent™ software (SCIREQ). […]

[2] = Nitroxide concentration measurement by EPR in mouse blood and tissue; format: in vivo; conditions: mice
Procedure: Electron paramagnetic resonance (EPR) spectroscopy was used to determine residual levels of nitroxide in mouse tissue. Blood samples or tissue samples were diluted with 0.5 ml phosphate buffer (40 mM, pH 7.4) or water, inserted into a flexible capillary placed in a quartz tube installed within the EPR spectrometer cavity and assayed for residual nitroxide. A similar procedure was used to determine the residual nitroxide in tissue homogenates of various organs, which were corrected for blood contamination spectrophotometrically by following the absorption of oxyhemoglobin at 400-600 nm. Measured EPR signals were compared to those of a nitroxide standard solution.
In order to determine total hydroxylamine and nitroxide concentrations, 2 mM K3Fe(CN)6 was added to samples in order to oxidize hydroxylamines to the respective nitroxide, and the nitroxide level was determined by EPR spectroscopy as described hereinabove.
(§4) Control and experimental groups contained 10 mice each. The effects of the nitroxides were investigated by feeding the mice ad libitum a diet of nitroxide-containing chow (1 weight percent) during both ovalbumin (OVA)-induced sensitization and challenging periods (days −2-19), during the sensitization period (days −2-11) or challenge period (days 13-19). Nitroxide-containing chow were prepared by dissolving 500 grams chow in a minimum volume of water containing 5 grams nitroxide and 5 grams commercial chicken soup powder, preparing the chow and drying it at 37° C. (animals were reluctant to eat nitroxide-containing chow until chicken soup powder was added).
(§5) 3-CP was also administered using 3 daily intraperitoneal (IP) injections (200 μl, 0.15 M, ˜300 mg/kg) 0.5 hour prior to the challenge with OVA aerosol, or by nasal instillation (50 μl, 0.3 M, ˜150 mg/kg) twice a day 0.5 hour prior to the challenge with OVA aerosol and 6 hours later without exceeding its maximally tolerated dose, which has been previously established to be 300-500 mg/kg. Both 3-CP and TPL were non-toxic when administered orally or via IP injection to untreated OVA-challenged mice for 22 days.

[3] = Toxicity / maximally tolerated dose in mice; format: in vivo; conditions: administered orally or via IP injection to untreated OVA-challenged mice for 22 days
Procedure: as §5

[4] = test system: ovalbumin-induced murine model of asthma; assay: Inflammatory cell counts in BAL fluid in OVA asthma model; format: in vivo, BALB/c mice
Procedure: as §1, §2, §3
(§6) Bronchoalveolar lavage (BAL) fluid (also referred to herein as “BALf”) and bronchial submucosal inflammation are characteristic features of asthma. Mice were euthanized with an overdose of 50 mg/kg pentobarbital and ice-cold phosphate buffer saline (PBS) (0.6 ml) was instilled into the lungs. BAL fluid was obtained by three aspirations via tracheal cannulation, centrifuged, and the supernatant collected and stored at −70° C. Cell pellets were re-suspended in PBS and 100 μl aliquots placed onto slides and centrifuged (200 g, 4° C., 10 minutes) in a cytospin machine. Induction of oxidative stress was evaluated using a 2′,7′-dichlorofluorescein fluorescence assay, and total IgE, IgG2a, panel of cytokines, transforming growth factors, collagen, protein nitration and lipid peroxidation were measured using commercial kits according to the manufacturer's recommendations. A Sircol™ collagen assay kit was obtained from Biocolor Life Sciences Assays, a protein nitration assay kit was obtained from Abcam, and other assay kits were obtained from PeproTech Asia.
as §4
3-CP was also administered using 3 daily intraperitoneal (IP) injections (200 μl, 0.15 M, ˜300 mg/kg) 0.5 hour prior to the challenge with OVA aerosol, or by nasal instillation (50 μl, 0.3 M, ˜150 mg/kg) twice a day 0.5 hour prior to the challenge with OVA aerosol and 6 hours later without exceeding its maximally tolerated dose, which has been previously established to be 300-500 mg/kg. Both 3-CP and TPL were non-toxic when administered orally or via IP injection to untreated OVA-challenged mice for 22 days. […]

IL-13 = IL-13 level in OVA asthma model; format: in vivo, BALB/c mice; conditions: OVA IP-Dex: dexamethasone intraperitoneal (1 mg/kg); lung tissue (table title)
Procedure: as §1, §2, §6
The efficacy of oral administration of 3-CP (1 weight percent in chow) during the sensitization period and/or challenge period was then compared to IP injection (˜300 mg/kg, 0.5 hour before the OVA challenge) or intranasal instillation (˜150 mg/kg, 0.5 hour before the OVA and 6 hours later) of 3-CP, as well as to dexamethasone treatment (1 mg/kg, 3 daily IP injections, 0.5 hour prior to the challenge with OVA aerosol).
In order to assess the effect of 3-CP on inflammatory signaling pathways, […] to procedures described hereinabove, upon oral, intranasal or IP administration of 3-CP.

Water-solubility = conditions: compared with 3-CP, data not shown
[5] = Nitroxide concentration measurement by EPR in mouse blood and tissue; format: in vivo; conditions: mice fed chow with 0.7 weight percent 3-CPT, FIG. 12

CC1(C)CC(O)CC(C)(C)N1[O] [TPL, 4-Hydroxy-2,2,6,6-tetramethyl-piperidin-1-oxyl, reference compound]
effect on methacholine-induced increase in lung resistance ([1]; 1 weight percent in chow, FIG. 3): suppressed methacholine-induced increase in lung resistance
residual concentration of the respective hydroxylamine compared with the nitroxide ([2]; data not shown): higher than those of the therapeutically active nitroxide free radical
residual concentration of nitroxide in blood ([2]; oral administration (1 weight percent nitroxide in chow), FIG. 1): detectable levels
toxicity [3]: non-toxic
effect on OVA-induced increase in total inflammatory cell and eosinophil counts in BAL fluid ([4]; oral, 1 weight percent in chow, FIG. 4): attenuated the increase in total inflammatory cell counts and eosinophil counts

C[C@@H]1C[C@H]2[C@@H]3CCC4=CC(=O)C=C[C@]4(C)[C@@]3(F)[C@@H](O)C[C@]2(C)[C@@]1(O)C(=O)CO [dexamethasone, Dexamethasone, reference compound]
IL-13 level (IL-13): 1.80 ng/mg

CC1(C)C=C(C(N)=O)C(C)(C)N1[O] [3-CPT, 3-carbamoyl-2,2,5,5-tetramethyl-3-pyrrolin-1-oxyl]
effect on methacholine-induced lung resistance ([1]; 0.7 weight percent 3-CPT in chow, FIG. 14): reduced methacholine-induced lung resistance, albeit to a considerably lesser degree than 3-CP
water-solubility (Water-solubility): lower water-solubility than 3-CP
inhibiting increases in inflammatory cell levels (especially eosinophil levels) in asthmatic animals ([4]; 3-CPT oral (0.7 weight percent in chow) or intraperitoneal (300 mg/kg), FIG. 13): effective
effect on OVA-induced increase of total cell counts in BAL fluid ([4]; oral, 0.7 weight percent 3-CPT in chow, FIG. 13): effective in reversing OVA-induced increase of total cell counts
reduction to the respective hydroxylamine in the blood [5]: most of the 3-CPT in the blood was reduced to the respective hydroxylamine
